This passage reports Ki, IC50 and Km results from patent publication US20030120073A1, “Alpha-ketocarboxylic acid based inhibitors of phosphoryl tyrosine phosphatases” (priority 2001, published 2003).

One test has as its target T1, Yersinia PTPase (Yersinia enterocolitica, UniProt P15273).
T1 construct: purchased Calbiochem
Nature of the test: biochemical. The test is classed as biochemical.

Test [1] deals with T2, PTP1B (Homo sapiens, UniProt P18031).
T2 construct: purchased Calbiochem
T2 sequence (P18031 1-435): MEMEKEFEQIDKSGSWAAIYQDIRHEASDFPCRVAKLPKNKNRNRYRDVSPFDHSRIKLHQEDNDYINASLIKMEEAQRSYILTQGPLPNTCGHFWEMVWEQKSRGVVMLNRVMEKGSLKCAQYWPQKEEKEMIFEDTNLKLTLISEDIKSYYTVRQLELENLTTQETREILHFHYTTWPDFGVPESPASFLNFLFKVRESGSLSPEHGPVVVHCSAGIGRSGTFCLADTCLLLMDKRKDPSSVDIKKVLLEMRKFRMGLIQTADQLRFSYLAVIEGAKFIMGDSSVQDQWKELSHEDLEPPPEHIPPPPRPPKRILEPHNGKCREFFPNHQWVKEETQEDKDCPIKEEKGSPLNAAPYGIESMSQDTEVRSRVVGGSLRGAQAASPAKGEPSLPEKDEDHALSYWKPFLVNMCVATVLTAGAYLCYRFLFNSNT
Nature of the test: PTP1B assay (p-NPP hydrolysis, UV at 420 nm). Format: biochemical. Particulars: 100 mM acetate pH 5.5, 10% DMSO; read-out: Km of substrate, PTP1B. The protocol:
PTP1B Assay: PTP1B (purchased from Calbiochem) was assayed usingp-NPP as the substrate and the reaction progress was monitored by UV spectroscopy. Initial rates were determined by monitoring the hydrolysis of p-NPP at 420 nm, from 10 to 120 s after mixing. Assay solutions contained 1.2 mM substrate, 1 mM EDTA, 100 mM NaCl, and 100 mM acetate at pH 5.5, and 10% DMSO. IC50 values were calculated using a Dixon analysis. Data analysis was performed with the commercial graphing package Grafit (Erithacus Software Ltd.).

In another test the target is T3, LAR PTPase (Homo sapiens, UniProt P10586).
T3 construct: purchased Calbiochem
T3 sequence (P10586 1301-1639 limits assumed): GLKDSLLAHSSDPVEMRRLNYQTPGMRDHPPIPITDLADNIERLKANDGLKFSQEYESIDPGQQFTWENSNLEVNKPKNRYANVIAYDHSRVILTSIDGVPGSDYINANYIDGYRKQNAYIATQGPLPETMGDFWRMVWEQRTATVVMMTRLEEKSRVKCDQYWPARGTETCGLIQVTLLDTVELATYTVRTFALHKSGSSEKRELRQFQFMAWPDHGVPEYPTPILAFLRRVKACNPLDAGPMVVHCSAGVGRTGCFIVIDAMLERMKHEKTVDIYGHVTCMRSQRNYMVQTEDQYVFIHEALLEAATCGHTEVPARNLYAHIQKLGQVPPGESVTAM
The test is described as follows: LAR PTPase assay (p-NPP hydrolysis, UV at 420 nm). Format: biochemical. Particulars: 100 mM acetate pH 5.5, 10% DMSO; read-out: Km of substrate, LAR.

Test [2] has as its target T2, PTP1B. Particulars: absence of DMSO, acetate buffer pH 5.5; reference 1; read-out: Km of substrate, PTP1B (reported); cited from earlier work.

Where two headings read alike, the source gives them in different places.

T1 sequence (P15273 whole entry): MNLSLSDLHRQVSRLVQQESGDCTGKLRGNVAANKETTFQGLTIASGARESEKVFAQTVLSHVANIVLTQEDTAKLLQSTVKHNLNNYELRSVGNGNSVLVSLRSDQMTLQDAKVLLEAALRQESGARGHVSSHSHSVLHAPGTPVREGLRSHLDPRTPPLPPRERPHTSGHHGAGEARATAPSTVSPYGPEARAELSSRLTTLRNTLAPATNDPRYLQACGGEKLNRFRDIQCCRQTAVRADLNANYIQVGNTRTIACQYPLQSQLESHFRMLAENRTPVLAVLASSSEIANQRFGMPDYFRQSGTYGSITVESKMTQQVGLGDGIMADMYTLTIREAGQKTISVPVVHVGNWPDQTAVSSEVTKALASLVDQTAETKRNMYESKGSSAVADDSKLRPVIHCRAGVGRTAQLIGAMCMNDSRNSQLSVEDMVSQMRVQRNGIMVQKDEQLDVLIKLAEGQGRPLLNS

On to `O=C(O)C(=O)c1ccco1` [Compound 11], for which the Ki (usually a dissociation constant, usually derived from enzyme kinetics or from competition with a known ligand) at Yersinia PTPase is 79 µM.
As for `O=C(O)C(=O)c1ccc(O)cc1` [Compound 27], the IC50 (commonly the concentration that gives 50% inhibition) against Yersinia PTPase is 200 ± 20 µM.
`O=[N+]([O-])c1ccc(OP(=O)(O)O)cc1` [p-NPP]: the Km (commonly the substrate concentration at which the rate is half of its maximum) on Yersinia PTPase (pH 5.5, read-out: Km of substrate, Yersinia PTPase) was 2500 µM; at PTP1B [1], 620 µM; on LAR PTPase, 2100 µM; at PTP1B [2] it was 750 µM.
With `O=C(O)C(=O)c1c[nH]c2ccccc12` [Compound 8], on Yersinia PTPase, the half-maximal inhibitory concentration (IC50) was found to be 390 µM.
`COc1ccc(C(=O)C(=O)O)cc1` [Compound 10] returned an IC50 against Yersinia PTPase of 150 µM.
As to `O=C(O)C(=O)c1ccccc1` [Compound 1], inhibition against Yersinia PTPase was half-maximal at 2700 µM (IC50).
